Results taken from ChEMBL document CHEMBL1201862, “PubChem BioAssay data set” (2004).
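Briefly, cells in 96-well plates were exposed to five compound concentrations for 48 h, and endpoints were estimated by linear interpolation. GI50 = concentration required for 50% inhibition of growth.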 Calls of active or inactive are those of the source. Rule as the data show it: active = GI50 up to about 1.1 µM and inactive = higher.

Legend:
Assay in all cases: DTP human tumour cell line panel, 48 h
[1] = test system: HT-29
[2] = test system: ACHN
[3] = test system: NCI/ADR-RES
[4] = test system: UACC-257
[5] = test system: NCI-H522
[6] = test system: HCT-15
[7] = test system: OVCAR-4
[8] = test system: OVCAR-8
[9] = test system: KM12
[10] = test system: SNB-19
[11] = test system: LOX IMVI
[12] = test system: M14
[13] = test system: UACC-62
[14] = test system: CCRF-CEM
[15] = test system: NCI-H23
[16] = test system: T47D
[17] = test system: DU-145
[18] = test system: HCC 2998

Structure (SMILES)	GI50 [1]	GI50 [2]	GI50 [3]	GI50 [4]	GI50 [5]	GI50 [6] [µM]	GI50 [7]	GI50 [8]	GI50 [9]	GI50 [10]	GI50 [11]	GI50 [12]	GI50 [13]	GI50 [14]	GI50 [15]	GI50 [16]	GI50 [17]	GI50 [18]
CC(C)(C)c1ccc(O)c(CN(Cc2c(O)ccc3ccccc23)C2CCCCC2)c1	16 µM (inactive)	18.5 µM (inactive)	16.3 µM (inactive)	15.7 µM (inactive)	14.8 µM (inactive)	16.4	20.7 µM (inactive)	15.2 µM (inactive)	17.6 µM (inactive)	18.5 µM (inactive)	10.4 µM (inactive)	12.6 µM (inactive)	15.6 µM (inactive)	13.9 µM (inactive)	16.4 µM (inactive)	17.9 µM (inactive)	23.8 µM (inactive)	–
CCN(CC)CC[n+]1ccc2c(C)c3[nH]c4ccccc4c3c(C)c2c1	0.684 µM (active)	5 µM (inactive)	–	0.713 µM (active)	0.406 µM (active)	22	–	–	0.338 µM (active)	0.144 µM (active)	0.689 µM (active)	0.923 µM (active)	–	0.204 µM (active)	0.546 µM (active)	0.188 µM (active)	0.422 µM (active)	0.468 µM (active)
O=C1N[C@H]2c3c(Cl)sc(Cl)c3/C(=N/O)[C@H]2O1	> 100 µM (inactive)	> 100 µM (inactive)	> 100 µM (inactive)	> 100 µM (inactive)	–	67.9	–	> 100 µM (inactive)	> 100 µM (inactive)	> 100 µM (inactive)	–	> 100 µM (inactive)	> 100 µM (inactive)	52.2 µM (inactive)	–	> 100 µM (inactive)	> 100 µM (inactive)	> 100 µM (inactive)
CN1Cc2ccccc2S(=O)(=O)n2cccc2C1=O	–	> 100 µM (inactive)	–	> 100 µM (inactive)	> 100 µM (inactive)	> 100	> 100 µM (inactive)	–	> 100 µM (inactive)	–	> 100 µM (inactive)	–	> 100 µM (inactive)	> 100 µM (inactive)	–	32.8 µM (inactive)	> 100 µM (inactive)	–
C/C(=C/CC[C@](C)(OC1OC(CO)C(O)C(O)C1O)[C@H]1CC[C@]2(C)[C@@H]1CC[C@@H]1[C@@]3(C)CC[C@H](O)C(C)(C)[C@@H]3C[C@H](O)[C@]12C)CO (stereo partly specified)	11.6 µM (inactive)	40.6 µM (inactive)	47.4 µM (inactive)	22.6 µM (inactive)	17.9 µM (inactive)	18.1	51.9 µM (inactive)	33.3 µM (inactive)	22.7 µM (inactive)	22 µM (inactive)	18.1 µM (inactive)	37.5 µM (inactive)	19.1 µM (inactive)	27.9 µM (inactive)	45.1 µM (inactive)	16.9 µM (inactive)	85.7 µM (inactive)	–
CCOc1ccc(C(c2c(O)c3ccccc3oc2=O)c2c(O)c3ccccc3oc2=O)cc1	40.9 µM (inactive)	74.6 µM (inactive)	98.6 µM (inactive)	35.6 µM (inactive)	30.7 µM (inactive)	65.5	> 100 µM (inactive)	43.9 µM (inactive)	56.9 µM (inactive)	91 µM (inactive)	66.5 µM (inactive)	42.3 µM (inactive)	38.7 µM (inactive)	27 µM (inactive)	44.4 µM (inactive)	41.4 µM (inactive)	> 100 µM (inactive)	–
COc1cc(OC)c(OC)cc1/C=C/c1cc[n+](C)c2ccccc12	30.5 µM (inactive)	> 100 µM (inactive)	> 100 µM (inactive)	16.1 µM (inactive)	–	> 100	46.9 µM (inactive)	9.93 µM (inactive)	19.8 µM (inactive)	8.45 µM (inactive)	–	60.8 µM (inactive)	–	14.8 µM (inactive)	12.1 µM (inactive)	33.4 µM (inactive)	86.9 µM (inactive)	52.6 µM (inactive)
CC(=O)NC1C(OCc2ccccc2)OC(CO)C(O)C1OC(C)C(=O)NC(C(=O)N[C@@H](CCC(=O)NCCNCCNc1c2ccccc2nc2cccc([N+](=O)[O-])c12)C(N)=O)C(C)C (stereo partly specified)	–	16.4 µM (inactive)	91.6 µM (inactive)	–	–	24.7	29.2 µM (inactive)	19.6 µM (inactive)	26.5 µM (inactive)	64.1 µM (inactive)	29.2 µM (inactive)	15.4 µM (inactive)	–	17.8 µM (inactive)	34 µM (inactive)	68.2 µM (inactive)	33 µM (inactive)	21 µM (inactive)
COC(=O)C1=C(C(=O)OC)C2(/N=C(\Nc3ccccc3)c3ccccc3)N(c3ccc(OC)cc3)CC(c3ccccc3)N2O1 (stereo unspecified)	> 100 µM (inactive)	> 100 µM (inactive)	> 100 µM (inactive)	> 100 µM (inactive)	> 100 µM (inactive)	> 100	> 100 µM (inactive)	> 100 µM (inactive)	> 100 µM (inactive)	> 100 µM (inactive)	> 100 µM (inactive)	> 100 µM (inactive)	> 100 µM (inactive)	> 100 µM (inactive)	> 100 µM (inactive)	> 100 µM (inactive)	> 100 µM (inactive)	–
